Here are results for three compounds from ChEMBL document CHEMBL4819123, “Pulchinenosides: Correlation of surface activity-cytotoxicity and hepatocyte apoptosis mechanism study” (Bioorg Med Chem Lett, 2021).

Series [1] can be described thus: Hemolytic activity in rabbit erythrocytes. Format: ADME, cell-based, Oryctolagus cuniculus, Erythrocyte. Particulars: read-out: HD50 (the source's name).
For series [2], the system named is L02. In words: Cytotoxicity against human L02 cells by MTT assay. The series is classed as cell-based. On the technique in general: Formazan colour is commonly taken as a measure of viable cells.
The subject of series [3] is L02. Put plainly: Induction of apoptosis in human L02 cells assessed as early apoptotic cells at 6 uM by annexin-V-FITC/PI staining based flow cytometry analysis (reference value: 3.81 %). Particulars: l02, 6 µM. Format: cell-based. A general note: A flow cytometer gives signals particle by particle.
For series [4], the system named is L02. Put plainly: Induction of apoptosis in human L02 cells assessed as late apoptotic cells at 6 uM by annexin-V-FITC/PI staining based flow cytometry analysis (reference value: 0.92 %). Particulars: l02, 6 µM. Format: cell-based.
Series [5] relates to L02. Put plainly: Induction of apoptosis in human L02 cells assessed as early apoptotic cells at 8 uM by annexin-V-FITC/PI staining based flow cytometry analysis (reference value: 3.81 %). The series is classed as cell-based. Particulars: l02, 8 µM.
The test system of series [6] is L02. Put plainly: Induction of apoptosis in human L02 cells assessed as late apoptotic cells at 8 uM by annexin-V-FITC/PI staining based flow cytometry analysis (reference value: 0.92 %). The series is classed as cell-based. As to conditions: l02, 8 µM.
Series [7] deals with L02. Put plainly: Induction of apoptosis in human L02 cells assessed as early apoptotic cells at 10 uM by annexin-V-FITC/PI staining based flow cytometry analysis (reference value: 3.81 %). The series is classed as cell-based. As to conditions: l02, 10 µM.
The subject of series [8] is L02. Put plainly: Induction of apoptosis in human L02 cells assessed as late apoptotic cells at 10 uM by annexin-V-FITC/PI staining based flow cytometry analysis (reference value: 0.92 %). The series is classed as cell-based. Particulars: l02, 10 µM.
The subject of series [9] is L02. Put plainly: Induction of cell cycle arrest in human L02 cells assessed as G0/G1 phase accumulation at 6 uM by PI staining based flow cytometry analysis (reference value: 53.77 %). As to conditions: l02, 6 µM.
Series [10] has as its system L02. In words: Induction of cell cycle arrest in human L02 cells assessed as S phase accumulation at 6 uM by PI staining based flow cytometry analysis (reference value: 38.23 %). As to conditions: l02, 6 µM.
Series [11] has as its system L02. In words: Induction of cell cycle arrest in human L02 cells assessed as G2/M phase accumulation at 6 uM by PI staining based flow cytometry analysis (reference value: 8 %). Particulars: l02, 6 µM.
Series [12] has as its system L02. In words: Induction of cell cycle arrest in human L02 cells assessed as G0/G1 phase accumulation at 8 uM by PI staining based flow cytometry analysis (reference value: 53.77 %). As to conditions: l02, 8 µM.
Series [13] concerns L02. In words: Induction of cell cycle arrest in human L02 cells assessed as S phase accumulation at 8 uM by PI staining based flow cytometry analysis (reference value: 38.23 %). As to conditions: l02, 8 µM.
Series [14] deals with L02. In words: Induction of cell cycle arrest in human L02 cells assessed as G2/M phase accumulation at 8 uM by PI staining based flow cytometry analysis (reference value: 8 %). Particulars: l02, 8 µM.
For series [15], the system named is L02. In words: Induction of cell cycle arrest in human L02 cells assessed as G0/G1 phase accumulation at 10 uM by PI staining based flow cytometry analysis (reference value: 53.77 %). Particulars: l02, 10 µM.
The test system of series [16] is L02. In words: Induction of cell cycle arrest in human L02 cells assessed as S phase accumulation at 10 uM by PI staining based flow cytometry analysis (reference value: 38.23 %). As to conditions: l02, 10 µM.
The subject of series [17] is L02. Put plainly: Induction of cell cycle arrest in human L02 cells assessed as G2/M phase accumulation at 10 uM by PI staining based flow cytometry analysis (reference value: 8 %). As to conditions: l02, 10 µM.
The subject of series [18] is L02. In words: Cytotoxicity against human L02 cells assessed as increase in LDH leakage by LDH assay. Format: cell-based. (LDH in the medium is a marker of cell lysis.)
Series [19] can be described thus: Oil-water partition coefficient, logP of compound. Format: physicochemical.
For series [20], the system named is L02. In words: Induction of apoptosis in human L02 cells assessed as early apoptotic cells at 18 uM by annexin-V-FITC/PI staining based flow cytometry analysis (reference value: 3.81 %). The series is classed as cell-based. Particulars: l02, 18 µM.
Series [21] relates to L02. Put plainly: Induction of apoptosis in human L02 cells assessed as late apoptotic cells at 18 uM by annexin-V-FITC/PI staining based flow cytometry analysis (reference value: 0.92 %). Format: cell-based. As to conditions: l02, 18 µM.
The test system of series [22] is L02. In words: Induction of apoptosis in human L02 cells assessed as early apoptotic cells at 24 uM by annexin-V-FITC/PI staining based flow cytometry analysis (reference value: 3.81 %). The series is classed as cell-based. Particulars: l02, 24 µM.
The subject of series [23] is L02. Put plainly: Induction of apoptosis in human L02 cells assessed as late apoptotic cells at 24 uM by annexin-V-FITC/PI staining based flow cytometry analysis (reference value: 0.92 %). Format: cell-based. Particulars: l02, 24 µM.
For series [24], the system named is L02. In words: Induction of apoptosis in human L02 cells assessed as early apoptotic cells at 26 uM by annexin-V-FITC/PI staining based flow cytometry analysis (reference value: 3.81 %). Format: cell-based. Particulars: l02, 26 µM.
Series [25] deals with L02. Put plainly: Induction of apoptosis in human L02 cells assessed as late apoptotic cells at 26 uM by annexin-V-FITC/PI staining based flow cytometry analysis (reference value: 0.92 %). Format: cell-based. Particulars: l02, 26 µM.
Series [26] deals with L02. In words: Induction of cell cycle arrest in human L02 cells assessed as G0/G1 phase accumulation at 18 uM by PI staining based flow cytometry analysis (reference value: 53.77 %). As to conditions: l02, 18 µM.
Series [27] deals with L02. In words: Induction of cell cycle arrest in human L02 cells assessed as S phase accumulation at 18 uM by PI staining based flow cytometry analysis (reference value: 38.23 %). As to conditions: l02, 18 µM.
In series [28] the test system is L02. In words: Induction of cell cycle arrest in human L02 cells assessed as G2/M phase accumulation at 18 uM by PI staining based flow cytometry analysis (reference value: 8 %). Particulars: l02, 18 µM.
For series [29], the system named is L02. In words: Induction of cell cycle arrest in human L02 cells assessed as G0/G1 phase accumulation at 24 uM by PI staining based flow cytometry analysis (reference value: 53.77 %). As to conditions: l02, 24 µM.
Series [30] deals with L02. Put plainly: Induction of cell cycle arrest in human L02 cells assessed as S phase accumulation at 24 uM by PI staining based flow cytometry analysis (reference value: 38.23 %). Particulars: l02, 24 µM.
Series [31] has as its system L02. In words: Induction of cell cycle arrest in human L02 cells assessed as G2/M phase accumulation at 24 uM by PI staining based flow cytometry analysis (reference value: 8 %). As to conditions: l02, 24 µM.
Series [32] concerns L02. In words: Induction of cell cycle arrest in human L02 cells assessed as G0/G1 phase accumulation at 26 uM by PI staining based flow cytometry analysis (reference value: 53.77 %). As to conditions: l02, 26 µM.
For series [33], the system named is L02. Put plainly: Induction of cell cycle arrest in human L02 cells assessed as S phase accumulation at 26 uM by PI staining based flow cytometry analysis (reference value: 38.23 %). Particulars: l02, 26 µM.
Series [34] has as its system L02. In words: Induction of cell cycle arrest in human L02 cells assessed as G2/M phase accumulation at 26 uM by PI staining based flow cytometry analysis (reference value: 8 %). As to conditions: l02, 26 µM.

Molecules are shown by their SMILES.

For the compound `C[C@@H]1O[C@@H](O[C@H]2[C@H](O[C@H]3CC[C@]4(C)[C@H]5CC=C6[C@@H]7CC(C)(C)CC[C@]7(C(=O)O)CC[C@@]6(C)[C@]5(C)CC[C@H]4C3(C)C)OC[C@H](O)[C@@H]2O[C@@H]2O[C@H](CO)[C@@H](O)[C@H](O)[C@H]2O)[C@H](O)[C@H](O)[C@H]1O`, in series [1], the HC50 is 3.6 µM. Further, the IC50 (in general, the midpoint of a concentration-inhibition curve) in series [2] stood at 7.49 µM. For the same compound, the Activity in series [3] was 6.87%; in series [4], 2.91%; in series [5] it was 13.4%; in series [6] it was 27.9%; in series [7], 2.79%; in [8] it was 89.3%. The Activity was 58.57% in [9]; 33.43% in series [10]; 8% in series [11]; 56.86% in series [12]; 38.34% in series [13]; 4.8% in series [14]. In addition, the Activity in series [15] is listed as 50.68%; in series [16], 47.32%; in [17], 2%; in series [18], “Toxic”. In [19], the logP (in general, the decadic logarithm of the partition coefficient of the neutral form, usually between octanol and water) is 0.318.

As to `C[C@@H]1O[C@@H](O[C@H]2[C@H](O[C@H]3CC[C@]4(C)[C@H]5CC=C6[C@@H]7CC(C)(C)CC[C@]7(C(=O)O)CC[C@@]6(C)[C@]5(C)CC[C@H]4C3(C)C)OC[C@H](O)[C@@H]2O)[C@H](O)[C@H](O)[C@H]1O`, the HC50 in series [1] was 7.46 µM. In addition, the IC50 in series [2] stood at 23.1 µM. In addition, the Activity came out at 8.4% in series [20]; 3.82% in [21]; 12.1% in [22]; 6.93% in [23]; 54.9% in series [24]; 8.41% in series [25]. Further, the Activity in series [26] is reported as 69.09%; in [27], 30.6%; in [28] it was 0.31%; in series [29], 64%; in [30], 36.28%; in series [31], 1.72%. The Activity in [32] was 51.19%; in series [33], 44.08%; in [34] it was 4.73%; in series [18] it was “Toxic”. In series [19], the logP was found to be 0.244.

On to `C[C@@H]1O[C@@H](O[C@H]2[C@H](O[C@H]3CC[C@@]4(C)[C@@H](CC[C@]5(C)[C@@H]4CC=C4[C@@H]6CC(C)(C)CC[C@]6(C(=O)O)CC[C@]45C)[C@]3(C)CO)OC[C@H](O[C@@H]3O[C@H](CO)[C@@H](O)[C@H](O)[C@H]3O)[C@@H]2O)[C@H](O)[C@H](O)[C@H]1O` [HEDERACOLCHISIDE A], for which, in series [1], the HC50 was found to be 6.83 µM. The compound further returned an IC50 in series [2] of 21.1 µM. Also, the Activity in series [20] turned out to be 13.7%; in series [21] it was 4.61%; in [22], 15.9%; in [23], 10.3%; in series [24], 2.2%; in series [25] it was 94.9%. Also, the Activity is 58.3% in series [26]; 40.23% in [27]; 1.47% in series [28]; 7.96% in series [29]; 30.41% in series [30]; 61.63% in series [31]. In addition, the Activity in series [32] is given as 61.72%; in series [33], 30.28%; in series [34] it was 8%; in [18] it was “Toxic”. For the same compound, the logP in series [19] worked out at 0.115.
